Experimental data reported in US20260248860A1, “LIVER DISEASE REGULATORY FORMULATION AND USE THEREOF” (SHANGHAI CELLIVER BIOTECHNOLOGY CO., LTD., priority 2021, published 2026).

Test system: ConA-stimulated mouse spleen cells
Test: ConA-stimulated mouse spleen cell proliferation (CFSE, flow cytometry)
Format: cell-based
Conditions: final concentration 10 nM, 72 hours, read-out: inhibition rate on the proliferation of spleen cells
Protocol: A method for preparing a suspension of mouse spleen cells added with a stimulator was: 1-week-old C57BL/6 mice were sacrificed by neck dislocation, then the spleen was taken, ground with a 200-mesh sieve, and then rinsed with a lymphatic separation fluid, and the separation solution containing lymphocytes was collected, resuspended by using a RPMI-1640 complete medium containing 10% fetal bovine serum and centrifuged under a centrifugal force of 800 g at low temperature for 30 minutes; and after completion of centrifugation, the lymphocyte layer was pipetted, then resuspended with a RPMI-1640 complete medium containing 10% fetal bovine serum, and then centrifuged under a centrifugal force of 250 g for 10 minutes at low temperature. The obtained lymphocyte layer was resuspended with the RPMI-1640 complete medium containing 10% fetal bovine serum again, and added with a concanavalin A(ConA) suspension resuspended with the RPMI-1640 complete medium containing 10% fetal bovine serum as a stimulator. […]

## C=CC[C@@H]1/C=C(\C)C[C@H](C)C[C@H](OC)[C@H]2O[C@@](O)(C(=O)C(=O)N3CCCC[C@H]3C(=O)O[C@H](/C(C)=C/[C@@H]3CC[C@@H](O)[C@H](OC)C3)[C@H](C)[C@@H](O)CC1=O)[C@H](C)C[C@@H]2OC [FK506, tacrolimus]
  inhibition at 0.01 µM: 82%
